Measurements published in ChEMBL document CHEMBL5331050, “Spiro[benzoxazine-piperidin]-one derivatives as chitin synthase inhibitors and antifungal agents: Design, synthesis and biological evaluation” (Eur J Med Chem, 2022).
Values after ≈ are worked out from the molar mass of the structure shown.

Key:
Cryptococcus neoformans [1] = assay: Antifungal activity against Cryptococcus neoformans ATCC 208821 assessed as fungal growth inhibition incubated for 24 hrs by CLSI protocol based broth microdilution method; assay type: functional
Candida tropicalis = assay: Inhibition of Candida tropicalis ATCC 750 chitin synthase using UDP-GlcNAc as substrate at 300 ug/ml incubated for 1 hrs by absorbance based assay relative to control; settings: dose 300.0 µg/ml
Aspergillus flavus [2] = assay: Antifungal activity against Aspergillus flavus ATCC 16870 assessed as fungal growth inhibition incubated for 24 hrs by CLSI protocol based broth microdilution method; assay type: functional
Candida albicans [3] = assay: Antifungal activity against Candida albicans ATCC 76615 assessed as fungal growth inhibition incubated for 24 hrs by CLSI protocol based broth microdilution method; assay type: functional
Aspergillus fumigatus [4] = assay: Antifungal activity against Aspergillus fumigatus GIMCC 3.19 assessed as fungal growth inhibition incubated for 24 hrs by CLSI protocol based broth microdilution method; assay type: functional
Candida albicans [5] = assay: Synergistic antifungal activity against Candida albicans ATCC 76615 assessed as fungal growth inhibition incubated for 24 hrs in the presence of fluconazole by broth dilution based checkerboard method; assay type: functional
Candida albicans [6] = assay: Synergistic antifungal activity against Candida albicans ATCC 76615 assessed as fractional inhibitory concentration index incubated for 24 hrs in the presence of fluconazole by broth dilution based checkerboard method; assay type: functional
Aspergillus flavus [7] = assay: Synergistic antifungal activity against Aspergillus flavus ATCC 16870 assessed as fractional inhibitory concentration index incubated for 24 hrs in the presence of fluconazole by broth dilution based checkerboard method; assay type: functional
Aspergillus fumigatus [8] = assay: Synergistic antifungal activity against Aspergillus fumigatus GIMCC 3.19 assessed as fungal growth inhibition incubated for 24 hrs in the presence of fluconazole by broth dilution based checkerboard method; assay type: functional
[9] = Inhibition of Candida tropicalis ATCC 750 chitin synthase using UDP-GlcNAc as substrate incubated for 1 hrs by absorbance based assay
Aspergillus fumigatus [10] = assay: Synergistic antifungal activity against Aspergillus fumigatus GIMCC 3.19 assessed as fractional inhibitory concentration index incubated for 24 hrs in the presence of fluconazole by broth dilution based checkerboard method; assay type: functional
Cryptococcus neoformans [11] = assay: Synergistic antifungal activity against Cryptococcus neoformans ATCC 208821 assessed as fungal growth inhibition incubated for 24 hrs in the presence of fluconazole by broth dilution based checkerboard method; assay type: functional
Cryptococcus neoformans [12] = assay: Synergistic antifungal activity against Cryptococcus neoformans ATCC 208821 assessed as fractional inhibitory concentration index incubated for 24 hrs in the presence of fluconazole by broth dilution based checkerboard method; assay type: functional
Aspergillus flavus [13] = assay: Synergistic antifungal activity against Aspergillus flavus ATCC 16870 assessed as fungal growth inhibition incubated for 24 hrs in the presence of fluconazole by broth dilution based checkerboard method; assay type: functional

Work on `COc1ccc2c(c1)C1(CCN(C(=O)/C=C/C(=O)Nc3ccc([N+](=O)[O-])cc3)CC1)OC(=O)N2` yielded an MIC (Cryptococcus neoformans [1]) greater than 512 µg/mL, an inhibition (Candida tropicalis) of 13% and an MIC (Aspergillus flavus [2]) greater than 512 µg/mL. For the same molecule, the MIC (Candida albicans [3]) was 512 µg/mL (≈ 1100 µM) and the MIC (Aspergillus fumigatus [4]) was greater than 512 µg/mL.

Molecule `COc1ccc2c(c1)C1(CCN(C(=O)C(O)C(O)C(=O)Nc3ccc(C)cc3)CC1)OC(=O)N2` (stereo unspecified) has an MIC (Cryptococcus neoformans [1]) greater than 512 µg/mL, an inhibition (Candida tropicalis) of 43% and an MIC (Aspergillus flavus [2]) greater than 512 µg/mL. For the same molecule, the MIC (Candida albicans [3]) was greater than 512 µg/mL and the MIC (Aspergillus fumigatus [4]) was 256 µg/mL (≈ 545 µM).

In the case of `COc1ccc2c(c1)C1(CCN(C(=O)/C=C/C(=O)Nc3ccccc3)CC1)OC(=O)N2`, the MIC (Candida albicans [5]) is reported as 32 µg/mL, the MIC (Cryptococcus neoformans [1]) is reported as 64 µg/mL (≈ 152 µM) and the “fractional inhibitory concentration index (FICI)” value (Candida albicans [6]) is reported as 1. The inhibition (Candida tropicalis) was 69%, the “fractional inhibitory concentration index (FICI)” value (Aspergillus flavus [7]) was 1.125 and the MIC (Aspergillus flavus [2]) was 53.3 µg/mL (≈ 127 µM). For the same molecule, the MIC (Aspergillus fumigatus [8]) was 26 µg/mL, the IC50 [9] was 280 µM and the MIC (Candida albicans [3]) was 64 µg/mL (≈ 152 µM). The “fractional inhibitory concentration index (FICI)” value (Aspergillus fumigatus [10]) was 0.55, the MIC (Aspergillus fumigatus [4]) was 53.3 µg/mL (≈ 127 µM) and the MIC (Cryptococcus neoformans [11]) was 16 µg/mL. For the same molecule, the “fractional inhibitory concentration index (FICI)” value (Cryptococcus neoformans [12]) was 1.125 and the MIC (Aspergillus flavus [13]) was 64 µg/mL.

With `COc1ccc2c(c1)C1(CCN(C(=O)CC(=O)Nc3ccccc3)CC1)OC(=O)N2` the MIC (Cryptococcus neoformans [1]) was 256 µg/mL (≈ 625 µM), the inhibition (Candida tropicalis) was 16% and the MIC (Aspergillus flavus [2]) was 256 µg/mL (≈ 625 µM). The MIC (Candida albicans [3]) was 512 µg/mL (≈ 1250 µM) and the MIC (Aspergillus fumigatus [4]) was greater than 512 µg/mL.

Molecule `COc1ccc2c(c1)C1(CCN(C(=O)C(O)C(O)C(=O)Nc3ccccc3)CC1)OC(=O)N2` (stereo unspecified) has an MIC (Cryptococcus neoformans [1]) greater than 512 µg/mL, an inhibition (Candida tropicalis) of 41% and an MIC (Aspergillus flavus [2]) of 512 µg/mL (≈ 1120 µM). The MIC (Candida albicans [3]) was 512 µg/mL (≈ 1120 µM) and the MIC (Aspergillus fumigatus [4]) was 512 µg/mL (≈ 1120 µM).

`COc1ccc2c(c1)C1(CCN(C(=O)/C=C/C(=O)Nc3ccccc3C)CC1)OC(=O)N2` showed an MIC (Cryptococcus neoformans [1]) greater than 512 µg/mL, an inhibition (Candida tropicalis) of 14% and an MIC (Aspergillus flavus [2]) of 512 µg/mL (≈ 1180 µM). For the same molecule, the MIC (Candida albicans [3]) was 256 µg/mL (≈ 588 µM) and the MIC (Aspergillus fumigatus [4]) was greater than 512 µg/mL.

Molecule `COc1ccc2c(c1)C1(CCN(C(=O)CCC(=O)Nc3ccc(Br)cc3)CC1)OC(=O)N2` has an MIC (Cryptococcus neoformans [1]) of 256 µg/mL (≈ 510 µM), an inhibition (Candida tropicalis) of 23% and an MIC (Aspergillus flavus [2]) of 256 µg/mL (≈ 510 µM). It also gave an MIC (Candida albicans [3]) of 107 µg/mL (≈ 212 µM) and an MIC (Aspergillus fumigatus [4]) of 512 µg/mL (≈ 1020 µM).

With `COc1ccc2c(c1)C1(CCN(C(=O)/C=C/C(=O)Nc3cccc(C)c3)CC1)OC(=O)N2` the MIC (Cryptococcus neoformans [1]) was greater than 512 µg/mL, the inhibition (Candida tropicalis) was 42% and the MIC (Aspergillus flavus [2]) was greater than 512 µg/mL. It also gave an MIC (Candida albicans [3]) of 256 µg/mL (≈ 588 µM) and an MIC (Aspergillus fumigatus [4]) greater than 512 µg/mL.

With `COc1ccc2c(c1)C1(CCN(C(=O)/C=C/C(=O)Nc3ccccc3Cl)CC1)OC(=O)N2` the MIC (Candida albicans [5]) was 16 µg/mL, the MIC (Cryptococcus neoformans [1]) was 32 µg/mL (≈ 70.2 µM) and the “fractional inhibitory concentration index (FICI)” value (Candida albicans [6]) was 1.125. For the same molecule, the inhibition (Candida tropicalis) was 36%, the “fractional inhibitory concentration index (FICI)” value (Aspergillus flavus [7]) was 1.42 and the MIC (Aspergillus flavus [2]) was 32 µg/mL (≈ 70.2 µM). The MIC (Aspergillus fumigatus [8]) was 64 µg/mL, the MIC (Candida albicans [3]) was 16 µg/mL (≈ 35.1 µM) and the “fractional inhibitory concentration index (FICI)” value (Aspergillus fumigatus [10]) was 2. The MIC (Aspergillus fumigatus [4]) was 32 µg/mL (≈ 70.2 µM), the MIC (Cryptococcus neoformans [11]) was 16 µg/mL and the “fractional inhibitory concentration index (FICI)” value (Cryptococcus neoformans [12]) was 0.625. For the same molecule, the MIC (Aspergillus flavus [13]) was 13.3 µg/mL.

Molecule `COc1ccc(NC(=O)C(O)C(O)C(=O)N2CCC3(CC2)OC(=O)Nc2ccc(OC)cc23)cc1` (stereo unspecified) has an MIC (Cryptococcus neoformans [1]) greater than 512 µg/mL, an inhibition (Candida tropicalis) of 52% and an MIC (Aspergillus flavus [2]) of 512 µg/mL (≈ 1050 µM). It also gave an MIC (Candida albicans [3]) greater than 512 µg/mL and an MIC (Aspergillus fumigatus [4]) of 256 µg/mL (≈ 527 µM).

For `COc1ccc(NC(=O)/C=C/C(=O)N2CCC3(CC2)OC(=O)Nc2ccc(OC)cc23)cc1`, the MIC (Candida albicans [5]) was 6.67 µg/mL, the MIC (Cryptococcus neoformans [1]) was 256 µg/mL (≈ 567 µM) and the “fractional inhibitory concentration index (FICI)” value (Candida albicans [6]) was 1.1. The inhibition (Candida tropicalis) was 82%, the “fractional inhibitory concentration index (FICI)” value (Aspergillus flavus [7]) was 3 and the MIC (Aspergillus flavus [2]) was 64 µg/mL (≈ 142 µM). The MIC (Aspergillus fumigatus [8]) was 26 µg/mL, the IC50 [9] was 210 µM and the MIC (Candida albicans [3]) was 64 µg/mL (≈ 142 µM). For the same molecule, the “fractional inhibitory concentration index (FICI)” value (Aspergillus fumigatus [10]) was 1.125, the MIC (Aspergillus fumigatus [4]) was 128 µg/mL (≈ 284 µM) and the MIC (Cryptococcus neoformans [11]) was 32 µg/mL. For the same molecule, the “fractional inhibitory concentration index (FICI)” value (Cryptococcus neoformans [12]) was 0.625 and the MIC (Aspergillus flavus [13]) was 128 µg/mL.

`COc1ccc2c(c1)C1(CCN(C(=O)/C=C/C(=O)Nc3ccccc3[N+](=O)[O-])CC1)OC(=O)N2` gave an MIC (Cryptococcus neoformans [1]) of 256 µg/mL (≈ 549 µM), an inhibition (Candida tropicalis) of 18% and an MIC (Aspergillus flavus [2]) of 512 µg/mL (≈ 1100 µM). The MIC (Candida albicans [3]) was 512 µg/mL (≈ 1100 µM) and the MIC (Aspergillus fumigatus [4]) was 256 µg/mL (≈ 549 µM).

With `COc1ccc2c(c1)C1(CCN(C(=O)/C=C/C(=O)Nc3ccccc3Br)CC1)OC(=O)N2` the MIC (Cryptococcus neoformans [1]) was 256 µg/mL (≈ 512 µM), the inhibition (Candida tropicalis) was 40% and the MIC (Aspergillus flavus [2]) was 64 µg/mL (≈ 128 µM). For the same molecule, the MIC (Candida albicans [3]) was 256 µg/mL (≈ 512 µM) and the MIC (Aspergillus fumigatus [4]) was 128 µg/mL (≈ 256 µM).

`COc1ccc2c(c1)C1(CCN(C(=O)/C=C/C(=O)Nc3ccc(Cl)cc3)CC1)OC(=O)N2` showed an MIC (Cryptococcus neoformans [1]) of 512 µg/mL (≈ 1120 µM), an inhibition (Candida tropicalis) of 51% and an MIC (Aspergillus flavus [2]) of 256 µg/mL (≈ 562 µM). The MIC (Candida albicans [3]) was 512 µg/mL (≈ 1120 µM) and the MIC (Aspergillus fumigatus [4]) was 128 µg/mL (≈ 281 µM).

Molecule `COc1ccc(NC(=O)CCC(=O)N2CCC3(CC2)OC(=O)Nc2ccc(OC)cc23)cc1` has an MIC (Cryptococcus neoformans [1]) of 256 µg/mL (≈ 565 µM), an inhibition (Candida tropicalis) of 17% and an MIC (Aspergillus flavus [2]) greater than 512 µg/mL. The MIC (Candida albicans [3]) was greater than 512 µg/mL and the MIC (Aspergillus fumigatus [4]) was 256 µg/mL (≈ 565 µM).
